Entries after “also recorded” stand apart in the source; their conditions may differ.
Assays:
HPV38-E6/E7 SCC cells = assay: Mouse back cSCC tumour model, tacrolimus diet, intra-tumoural injection; conditions: in vivo
CD8+ T cells = assay: Mouse T cell proliferation assay (Cell Trace Violet, 7AAD, flow cytometry); type: cell-based; conditions: 3 days
Procedure: Spleens, inguinal and brachial lymph nodes were harvested from two C57BL/6 mice in sterile conditions and placed in sterile Phosphate Buffered Saline (PBS), then cells were dissociated into a single cell suspension by gently crushing all organs through a 70 μm cell strainer. Cells were washed through the strainer into a 50 mL falcon tube with 5 mL sterile ACK lysis buffer (0.15 M NH4Cl, 1 mM KHCO3 pH 7.3). Cells were incubated for 3 min at room temperature to lyse red blood cells. 5 mL sterile PBS was added to the cell suspension and cells were centrifuged at 350 g for 10 min at room temperature. Supernatant was removed and the cell pellet resuspended in 10 mL sterile PBS. Cells were centrifuged again at 350 g for 10 min at room temperature. The supernatant was removed and the cells were resuspended in 1 mL of sterile PBS.
1 μμL of 5 mM CellTrace Violet (Thermo Fisher) was added to the cell suspension and the mixture was swirled to ensure even dispersion of the dye. Cells were incubated for 20 min in the dark at room temperature. 5 mL of pre-warmed complete RPMI medium [(RPMI 1640 (Gibco), 10% heat inactivated FBS (Gibco), 1× Penicillin/Streptomycin/L-Glutamine, 100 μM 2-Mercaptoethanol] was added to the cell suspension and incubated in the dark at room temperature for 5 min. Cells were centrifuged at 350 g for 5 min at room temperature. Supernatant was removed without disrupting the cell pellet. Cells were resuspended in 1 mL complete RPMI medium.
Cells were counted using a haemocytometer and cells were adjusted to 2×10^6 cells/mL using complete RPMI medium. 500 μL of cell suspension was added to wells in a 48-well plate (Nunc) so the final number of cells per well was 1×10^6.
A vial of Dynabeads Mouse T Activator CD3/CD28 beads (4×10^7 beads/mL) was vortexed for 30 sec and 625 μL of beads was aliquoted into a 5 mL polypropylene FACS tube (Sarstedt). 1 mL of complete RPMI medium was added to the beads and mixed by pipetting. The FACS tube was placed in a StemCell Technologies EasySep magnet for 1 minute and supernatant was discarded. The tube was removed from the magnet and washed beads were resuspended in 625 μL of complete RPMI medium. 12.5 μL of bead suspension (5×10^5 beads) was added into appropriate wells of the 48-well plate with cell suspensions to induce T cell activation.
Cells were incubated in a humidified incubator at 37° C. with 5% CO2 for 1 hour before Compound 1 (or vehicle only) was diluted in complete RPMI medium and added to the appropriate wells at the concentration required. The final volume in all wells was 1 mL. Cells were incubated for 3 days in a humidified incubator at 37° C. with 5% CO2.
Cells were harvested from each well by resuspending cells with a pipette and transferring to polypropylene FACS tubes. […]

skin tumours = conditions: 104 weeks, doses up to 260× of the recommended human dose (Protopic prescribing information); cited from earlier work
[1] = tested on: chemically (TPA+DMBA) induced tumour formation; conditions: topical application, mouse model (Jiang et al. 1993); cited from earlier work

SMILES | percentage of CD69+ (activated) CD8 T cells isolated from the tumour (HPV38-E6/E7 SCC cells) | percentage of IFN gamma+ CD8 T cells isolated from the tumour (HPV38-E6/E7 SCC cells) | percentage of TNF alpha+ CD8 T cells isolated from the tumour (HPV38-E6/E7 SCC cells) | tacrolimus dependent-tumour growth compared to the vehicle control (HPV38-E6/E7 SCC cells) | tacrolimus dependent-tumour growth compared to the vehicle control, without CD8 depletion (HPV38-E6/E7 SCC cells) | tumour regression after CD8 depletion (HPV38-E6/E7 SCC cells) | rescue of CD8+ T cell proliferation in the presence of tacrolimus (CD8+ T cells; 0.3 μM, 1 μM and 3 μM Compound 1 with 0.6 ng/mL tacrolimus) | effect on CD8+ T cell viability in the absence of tacrolimus (CD8+ T cells; Compound 1 0.3-3 μM, no tacrolimus, 7AAD) | effect on CD8+ T cell proliferation in the absence of tacrolimus (CD8+ T cells; Compound 1 0.3-3 μM, no tacrolimus) | association of skin tumours with daily topical doses (skin tumours) | reduction of chemically (TPA+DMBA) induced tumour formation [1] | CD8+ T cell proliferation compared to the vehicle control (CD8+ T cells; 0.6 ng/mL tacrolimus, CD3/CD28 beads)
CC[C@@H]1/C=C(\C)[C@@H](O)[C@H](C)C[C@H](OC)[C@H]2O[C@@](O)(C(=O)C(=O)N3CCCC[C@H]3C(=O)O[C@H](/C(C)=C/[C@@H]3CC[C@@H](O)[C@H](OC)C3)[C@H](C)[C@@H](O)CC1=O)[C@H](C)C[C@@H]2OC [Compound 1, 17-Ethyl-1,14,20-trihydroxy-12-[2′-(4″-hydroxy-3″-methoxycyclohexyl)-1′-methylvinyl]-23,25-dimethoxy-13,19,21,27-tetramethyl-11,28-dioxa-4-azatricyclo-[22.3.1.0^4,9]octacos-18-ene-2,3,10,16-tetraone] | significantly increased | significantly increased | significantly increased | significantly reduced | significantly reduced | no longer able cause tumour regression | dose dependent rescue; also recorded: dose dependently and significantly rescued | no significant effect | no significant effect | – | – | –
C=CC[C@@H]1/C=C(\C)C[C@H](C)C[C@H](OC)[C@H]2O[C@@](O)(C(=O)C(=O)N3CCCC[C@H]3C(=O)O[C@H](/C(C)=C/[C@@H]3CC[C@@H](O)[C@H](OC)C3)[C@H](C)[C@@H](O)CC1=O)[C@H](C)C[C@@H]2OC [tacrolimus, reference compound] | – | – | – | – | – | – | – | – | – | no association | 80% | inhibited
